Our source for the EC50 values is patent US9000028B2, “Indole and indazole compounds as an inhibitor of cellular necrosis” (LG Life Sciences Ltd., priority 2007, dated 2015).

The subject of test [1] is primary hepatocytes isolated from rats. Kind of test: Hepatocyte protective effect against substances deriving hepatocyte toxicity (WST-1 viability). The class given is cell-based. Particulars: Rattus norvegicus, Hepatocyte, doxorubicin, 24-48 h, read-out: EC50, cell protective effects against doxorubicin in hepatocytes. The method, boiled down: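 Hepatocytes from two-step collagenase perfusion (≥90% viable) seeded on collagen, pretreated 30 min with compound (5-step 2- or 3-fold dilutions from 30, 10 or 1 uM; 0.2% DMSO), then exposed to hepatotoxic agents. WST-1 absorbance at 440 nm after 24-48 h; EC50 = concentration giving 50% of maximal protection.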
(Tetrazolium dyes change colour on reduction, which living cells bring about.)

For test [2], the system named is brain cells (SK-N-MC). The experiment in a line: Protective effect when tBHP was treated on brain cells (LDH assay). It counts as cell-based. The note with it: Homo sapiens, tBHP 400 uM, 6 h. The method, then: In order to assess the protective effect on brain cells, 2×10^4 brain cells were distributed into the 96-well plate using DMEM media (Gibco, 10% FBS), and incubated for 24 h. The Example compounds were serially diluted by 3-fold to the final concentration of 30, 10, 3, 1, 0.3, 0.1 uM, by which each well was treated for 1 h. Cells were treated with tBHP at the final concentration of 400 uM, and incubated for 6 h. 50 uL of media was taken from each well to proceed with LDH assay (Promega). In LDH assay, 50 uL of media was mixed with 50 uL of assay solution. After the reaction for 30 min at room temperature, absorbance was measured at 490 nm using SpectraMax (Molecular Device).

The test system of test [3] is chondrocytes. The experiment in a line: Protective effect when tBHP was treated on chondrocytes (SRB method). The class given is cell-based, SD rats. The note with it: Chondrocyte; tBHP 500 uM, 3 h; rat chondrocytes. The method, then:
(§1) In order to determine the protective effect on pancreatic cells, Linm5F cells, a sort of the beta cells, were distributed into the 96-well plate in the amount of 2×10^4 cells/well, and incubated for 24 h. The Example compounds were serially diluted by 3-fold to the final concentration of 30, 10, 3, 1, 0.3, 0.1 uM, by which each well was treated for 1 h. Cells were treated with tBHP at the final concentration of 400 uM, and further incubated for 5 h. Protective effects were determined using SRB (Sulforhodamine B Protein) method in which total amount of cellular protein is stained. Briefly, cells were incubated for 5 h, 50 uL of 4% formaldehyde solution was added to each well to fix the cells, and stored for about 30 min at room temperature. After discarding the media, each well was washed with distilled water 2-3 times, and the plate was dried in an oven at 50° C. 50 uL of SRB solution was added to each well, and placed for about 30 min at room temperature. After removing SRB solution, the plate was washed with 1% acetic acid solution 2-3 times. […]
In order to determine the protective effect on chondrocytes, chondrocytes were isolated from 2 hind legs of 16 week-old SD rats (body weight: 450-460 g). […] Protective effect of each compound was determined using the same SRB staining method as in Linm5F of above mentioned 2).
(The SRB assay estimates cell density from bound dye.)

In test [4] the test system is kidney cells (LLC-PK1). Kind of test: Protective effect when tBHP was treated on kidney cells (SRB method). The class given is cell-based. Particulars: Sus scrofa, tBHP 400 uM, 6 h. Here is the method: as §1
In order to determine the protective effect on kidney cells, 4×10^4 cells were distributed into each well, and incubated for 24 h. […] Protective effect of each compound was determined using the same SRB method as in Linm5F of above mentioned 2).

Test [5] has as its system pancreatic cells (Linm5F). Kind of test: Protective effect when tBHP was treated on pancreatic cells (SRB method). The class given is cell-based. The note with it: tBHP 400 uM, 5 h. The method, then: (§2) In order to determine the protective effect on pancreatic cells, Linm5F cells, a sort of the beta cells, were distributed into the 96-well plate in the amount of 2×10^4 cells/well, and incubated for 24 h. The Example compounds were serially diluted by 3-fold to the final concentration of 30, 10, 3, 1, 0.3, 0.1 uM, by which each well was treated for 1 h. Cells were treated with tBHP at the final concentration of 400 uM, and further incubated for 5 h. Protective effects were determined using SRB (Sulforhodamine B Protein) method in which total amount of cellular protein is stained. Briefly, cells were incubated for 5 h, 50 uL of 4% formaldehyde solution was added to each well to fix the cells, and stored for about 30 min at room temperature. After discarding the media, each well was washed with distilled water 2-3 times, and the plate was dried in an oven at 50° C. 50 uL of SRB solution was added to each well, and placed for about 30 min at room temperature. After removing SRB solution, the plate was washed with 1% acetic acid solution 2-3 times. After drying the plate in an oven at 50° C., 100 uL of 10 mM Tris was added to elute SRB which was staining the intracellular protein.

Test [6] relates to cardiac cells (H9C2, white rat cardiomyocyte). The experiment in a line: Protective effect when tBHP was treated on cardiac cells (SRB method). It counts as cell-based. Particulars: tBHP 400 uM, 2 h. Here is the method: as §2
In order to assess the protective effect on cardiac cells, H9C2 cells were distributed in the amount of 1.5×10^4 cells/well, and incubated for 24 h. The Example compounds were serially diluted by 3-fold to the final concentration of 30, 10, 3, 1, 0.3, 0.1 uM, by which each well was treated for 45 min. Cells were treated with tBHP at the final concentration of 400 uM, and incubated for 2 h. Protective effect of each compound was determined using the same SRB method as in Linm5F of above mentioned 2).

In general, EC50 refers to the concentration needed to bring the measured effect to its halfway point. Turning to `O=C1CN(Cc2cc(NC3CCOCC3)c3[nH]c(-c4ccccc4)cc3c2)CCN1` [Example 37, (Tetrahydropyran-4-yl)-[2-phenyl-5-(2-oxo-piperazin-4-yl)methyl-1H-indol-7-yl]amine], the EC50 in test [1] is 150 nM; in test [2], not above 100 nM.
`O=C1CN(Cc2cc(NCC3CCOCC3)c3[nH]c(-c4ccccc4)cc3c2)CCN1` [Example 63, (Tetrahydropyran-4-ylmethyl)-[2-phenyl-5-(2-oxo-piperazin-4-yl)methyl-1H-indol-7-yl]amine]: the figures for the EC50 in test [1], in test [2] and in test [3] were 170 nM, not above 100 nM and not above 100 nM, respectively.
As to `Cc1cc(N(C)C2CCOCC2)c2[nH]c(-c3ccccc3)cc2c1` [Example 55, (Tetrahydropyran-4-yl)-(5-methyl-2-phenyl-1H-indol-7-yl)-methyl-amine], the EC50 in test [1] is 300 nM; in test [2], not above 100 nM.
With `O=S1(=O)CCN(Cc2cc(NCC3CCOCC3)c3[nH]c(-c4ccccc4)cc3c2)CC1` [Example 56, (Tetrahydropyran-4-ylmethyl)-[2-phenyl-5-(1,1-dioxo-thiomorpholin-4-yl)methyl-1H-indol-7-yl]amine], the EC50 in test [4] is 660 nM; in test [1] it was 130 nM; in test [5] it was not above 100 nM; in test [3], not above 100 nM.
Consider `CC(=O)Nc1ccc(-c2cc3cc(N4CCS(=O)(=O)CC4)cc(N(C4CCCC4)C4CCCC4)c3[nH]2)cc1` [Example 86, Dicyclopentyl-{5-(1,1-dioxo-thiomorpholin-4-yl)-2-[4-(acetyl)aminophenyl]-1H-indol-7-yl}-amine], for which the EC50 is 500 nM in test [6] and 1440 nM in test [1].
Turning to `COC(=O)CNc1cc(F)cc2cc(-c3ccccc3)[nH]c12` [Example 106, 2-(5-Fluoro-2-phenyl-1H-indol-7-yl)amino-acetic acid methyl ester], the half-maximal effective concentration (EC50) was 450 nM in test [1] and not above 100 nM in test [5].
As for `O=C(O)CNc1cc(F)cc2cc(-c3ccccc3)[nH]c12` [Example 107, 2-(5-Fluoro-2-phenyl-1H-indol-7-yl)amino-acetic acid], the concentration giving a half-maximal response (EC50) in test [1] was 350 nM; in test [5] it was not above 100 nM.
As for `Cc1ccc(Nc2cc(Cl)cc3c(-c4ccccc4)c[nH]c23)nc1` [Example 115, (5-Chloro-3-phenyl-1H-indol-7-yl)-(5-methyl-pyridin-2-yl)-amine], the EC50 in test [1] is more than 2000 nM; in test [2], 260 nM.
As to `O=C(O)[C@@H]1CCCN1C(=O)c1cc(NC2CCCC2)c2[nH]c(-c3ccccc3)cc2c1` [Example 117, (2S)-1-(7-cyclopentylamino-2-phenyl-1H-indole-5-carbonyl)-pyrrolidine-2-carboxylic acid], the EC50 in test [6] is not above 200 nM; in test [1] it was 260 nM.
